Several values for one entry are separate records, joined by “and”; a condition that tells them apart may be missing. Equal entries are not always repeated.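 Five compound concentrations were applied to cells in 96-well plates for 48 hours; endpoints were derived by simple linear interpolation of the resulting dose-response curve. GI50 = concentration required for 50% inhibition of growth. The concentration for full growth arrest is given as TGI.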
Legend:
Assay in all cases: inhibition of tumour cell growth, NCI panel, 48 h
A498 renal = system: A498 renal
A549 NSCLC = system: A549 NSCLC
NCI-H460 lung = system: NCI-H460 lung
K-562 leukemia = system: K-562 leukemia
OVCAR-3 ovarian = system: OVCAR-3 ovarian
SF-268 CNS = system: SF-268 CNS
SN12C renal = system: SN12C renal
NCI-H23 lung = system: NCI-H23 lung
OVCAR-8 ovarian = system: OVCAR-8 ovarian
CCRF-CEM leukemia = system: CCRF-CEM leukemia
UACC-62 melanoma = system: UACC-62 melanoma
NCI-H522 lung = system: NCI-H522 lung
MDA-MB-231 breast = system: MDA-MB-231 breast
HOP-62 NSCLC = system: HOP-62 NSCLC
IGROV1 ovarian = system: IGROV1 ovarian
HS 578T breast = system: HS 578T breast
MOLT-4 leukemia = system: MOLT-4 leukemia
HCC-2998 colon = system: HCC-2998 colon
MCF7 breast = system: MCF7 breast
UO-31 renal = system: UO-31 renal
TK-10 renal = system: TK-10 renal
DU-145 prostate = system: DU-145 prostate
SR leukemia = system: SR leukemia
LOX IMVI melanoma = system: LOX IMVI melanoma
HCT-116 colon = system: HCT-116 colon
HL-60(TB) leukemia = system: HL-60(TB) leukemia
OVCAR-4 ovarian = system: OVCAR-4 ovarian
NCI-H226 lung = system: NCI-H226 lung

## O=C(O)C[C@H](O)C[C@H](O)/C=C/c1c(C2CC2)nc2ccccc2c1-c1ccc(F)cc1
A498 renal
  TGI: 0.908 µM and 0.226 µM
A549 NSCLC
  GI50: > 100 µM and 18.7 µM
  TGI: > 100 µM
NCI-H460 lung
  GI50: 21.2 µM and 4.92 µM
  TGI: > 100 µM
K-562 leukemia
  GI50: 6.4 µM and 7.73 µM
  TGI: > 100 µM
OVCAR-3 ovarian
  GI50: 16.8 µM and 12.1 µM
  TGI: > 100 µM
SF-268 CNS
  GI50: 0.659 µM and 0.381 µM
  TGI: > 100 µM
SN12C renal
  GI50: 2.4 µM and 0.668 µM
  TGI: > 100 µM
NCI-H23 lung
  GI50: 8.75 µM and 3.31 µM
  TGI: > 100 µM
OVCAR-8 ovarian
  GI50: 7.63 µM and 2.17 µM
  TGI: > 100 µM
CCRF-CEM leukemia
  GI50: 58.4 µM and 25.8 µM
  TGI: > 100 µM
UACC-62 melanoma
  GI50: 2.3 µM and 0.45 µM
  TGI: > 100 µM
NCI-H522 lung
  GI50: 1.38 µM and 0.633 µM
MDA-MB-231 breast
  GI50: 0.287 µM and 0.0564 µM
HOP-62 NSCLC
  GI50: 15 µM and 6.22 µM
  TGI: > 100 µM
IGROV1 ovarian
  GI50: 5.25 µM and 3.6 µM
  TGI: 43.5 µM and > 100 µM
HS 578T breast
  GI50: 6.45 µM and 2.1 µM
  TGI: > 100 µM
MOLT-4 leukemia
  GI50: > 100 µM and 54.5 µM
  TGI: > 100 µM
HCC-2998 colon
  GI50: 42 µM and 49.9 µM
  TGI: > 100 µM
MCF7 breast
  GI50: 54.7 µM and > 21.9 µM
  TGI: > 100 µM
UO-31 renal
  GI50: 16 µM and 3.48 µM
  TGI: > 100 µM
TK-10 renal
  TGI: > 100 µM
DU-145 prostate
  GI50: > 100 µM and 31 µM
  TGI: > 100 µM
SR leukemia
  GI50: 2.59 µM and 0.615 µM
  TGI: > 100 µM
LOX IMVI melanoma
  GI50: 1.33 µM
  TGI: 13.9 µM
HCT-116 colon
  GI50: 5.8 µM and 1.25 µM
  TGI: > 100 µM
HL-60(TB) leukemia
  GI50: 4.55 µM and 25.6 µM
  TGI: > 100 µM
OVCAR-4 ovarian
  GI50: 22.8 µM and 8.04 µM
  TGI: > 100 µM
NCI-H226 lung
  GI50: 11.7 µM and 2.22 µM
  TGI: 51.6 µM and 8.01 µM

Source: PubChem BioAssay (NCI)
